Measurements from patent US20250145594A1, “MODULATORS OF THE INTEGRATED STRESS PATHWAY” (Calico Life Sciences LLC, priority 2020, published 2025).

Test system: ATF4 luciferase reporter in HEK293T cells
Experiment: ATF4-Luc assay (in vitro model of VWMD)
Assay type: cell-based, human
Conditions: Homo sapiens, HEK-293T, 7 h, HEK293T cells carrying the ATF4 luciferase reporter, 1 μg/mL tunicamycin, One Glo luminescence
In short: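 Stable HEK293T line expressing firefly luciferase behind the human ATF4 5′-UTR, treated with 1 μg/mL tunicamycin plus compound for 7 hours. Luminescence read with One Glo; EC50 determined.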

SMILES | EC50 [nM]
O=C(NC12CC(n3cc(-c4ccc(OC(F)(F)F)cn4)cn3)(C1)C2)[C@@H]1C[C@H](O)c2cc(C(F)(F)F)ccc2O1 [Compound 338, (2S,4S)-4-hydroxy-N-(3-{4-[5-(trifluoromethoxy)pyridin-2-yl]-1H-pyrazol-1-yl}bicyclo[1.1.1]pentan-1-yl)-6-(trifluoromethyl)-3,4-dihydro-2H-1-benzopyran-2-carboxamide] | < 10
C[C@H](COC(F)(F)F)N(C)c1cnn(C23CC(NC(=O)[C@H]4C[C@@H](O)c5cc(Cl)ccc5O4)(C2)C3)c1 [Compound 448, (2R,4R)-6-chloro-4-hydroxy-N-[3-(4-{methyl[(2R)-1-(trifluoromethoxy)propan-2-yl]amino}-1H-pyrazol-1-yl)bicyclo[1.1.1]pentan-1-yl]-3,4-dihydro-2H-1-benzopyran-2-carboxamide] | 500 to 2000
O=C(NC12CC(c3ccnc(-n4cc(C(F)(F)F)cn4)c3)(C1)C2)[C@H]1C[C@@H](O)c2cc(Cl)ccc2O1 [Compound 560, (2R,4R)-6-chloro-4-hydroxy-N-(3-{2-[4-(trifluoromethyl)-1H-pyrazol-1-yl]pyridin-4-yl}bicyclo[1.1.1]pentan-1-yl)-3,4-dihydro-2H-1-benzopyran-2-carboxamide] | 10 to 50
O=C(NC12CC(n3cc(-c4ccc(OC(F)(F)F)cn4)cn3)(C1)C2)[C@H]1C[C@@H](O)c2cc(F)c(F)cc2O1 [Compound 369, (2R,4R)-6,7-difluoro-4-hydroxy-N-(3-{4-[5-(trifluoromethoxy)pyridin-2-yl]-1H-pyrazol-1-yl}bicyclo[1.1.1]pentan-1-yl)-3,4-dihydro-2H-1-benzopyran-2-carboxamide] | < 10
O=C(NC12CC(c3ccc(C(=O)N4CC[C@H](OC(F)(F)F)C4)cn3)(C1)C2)[C@H]1C[C@@H](O)c2cc(Cl)ccc2O1 [Compound 534, (2R,4R)-6-chloro-4-hydroxy-N-(3-{5-[(3S)-3-(trifluoromethoxy)pyrrolidine-1-carbonyl]pyridin-2-yl}bicyclo[1.1.1]pentan-1-yl)-3,4-dihydro-2H-1-benzopyran-2-carboxamide] | 10 to 50
O=C(NC12CC(n3ccc([C@H]4C[C@@H](OC(F)(F)F)C4)n3)(C1)C2)[C@H]1C[C@@H](O)c2cc(Cl)ccc2O1 [Compound 314, (2R,4R)-6-chloro-4-hydroxy-N-(3-{3-[cis-3-(trifluoromethoxy)cyclobutyl]-1H-pyrazol-1-yl}bicyclo[1.1.1]pentan-1-yl)-3,4-dihydro-2H-1-benzopyran-2-carboxamide] | 50 to 250
O=C(NC12CC(n3cc(N4CC(COC(F)(F)F)C4)cn3)(C1)C2)[C@H]1C[C@@H](O)c2cc(Cl)ccc2O1 [Compound 337, (2R,4R)-6-chloro-4-hydroxy-N-[3-(4-{3-[(trifluoromethoxy)methyl]azetidin-1-yl}-1H-pyrazol-1-yl)bicyclo[1.1.1]pentan-1-yl]-3,4-dihydro-2H-1-benzopyran-2-carboxamide] | 10 to 50
O=C(N[C@H]1CC[C@H](n2cc(-c3ccc(C(F)(F)F)cn3)cn2)CC1)[C@H]1C[C@@H](O)c2cc(Cl)c(F)cc2O1 [Compound 578, (2R,4R)-6-chloro-7-fluoro-4-hydroxy-N-[(1r,4R)-4-{4-[5-(trifluoromethyl)pyridin-2-yl]-1H-pyrazol-1-yl}cyclohexyl]-3,4-dihydro-2H-1-benzopyran-2-carboxamide] | < 10
O=C(COc1ccc(Cl)c(F)c1)N[C@H]1CC[C@H](n2cc(OCCOC(F)(F)F)cn2)CC1 [Compound 457, 2-(4-chloro-3-fluorophenoxy)-N-[(1r,4r)-4-{4-[2-(trifluoromethoxy)ethoxy]-1H-pyrazol-1-yl}cyclohexyl]acetamide] | < 10
O=C(NC12CC(n3cc(N4CCC(OC(F)(F)F)C4)cn3)(C1)C2)[C@H]1C[C@@H](O)c2cc(Cl)ccc2O1 (stereo partly drawn) [Compound 325, (2R,4R)-6-chloro-4-hydroxy-N-(3-{4-[3-(trifluoromethoxy)pyrrolidin-1-yl]-1H-pyrazol-1-yl}bicyclo[1.1.1]pentan-1-yl)-3,4-dihydro-2H-1-benzopyran-2-carboxamide] | < 10
